Measurements reported in PubChem BioAssay AID296 (DTP/NCI, 2004).
Records with an inconclusive call do not appear.

Test system: MX-1 breast xenograft, nude mice, tumor weight T/C
Assay: NCI In Vivo Anticancer Drug Screen. Data for tumor model Human Mammary Carcinoma MX-1 Xenograft (intrarenal inoculation) in NU/NU Swiss (nude) mice
Conditions: endpoint: mean tumor weight change, higher = larger tumour
How it was run: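 Antitumour effect measured in vivo against vehicle controls, expressed as T/C.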

[1] = dose: 300.0 mg/kg/injection, schedule: Q04DX003 (sc), vehicle: suspension in saline
[2] = dose: 600.0 mg/kg/injection, schedule: Q04DX003 (sc), vehicle: suspension in saline

## O=C1C(NCCO)=C(N2CC2)C(=O)C(NCCO)=C1N1CC1
dose: 0.5 mg/kg/injection, schedule: Q04DX003 (ip), vehicle: saline
  T/C: 69 % of control
dose: 0.75 mg/kg/injection, schedule: Q04DX003 (sc), vehicle: saline
  T/C: 64 % of control
dose: 1.0 mg/kg/injection, schedule: Q04DX003 (ip), vehicle: saline
  T/C: 50 % of control
dose: 1.5 mg/kg/injection, schedule: Q04DX003 (sc), vehicle: saline
  T/C: 37 % of control
dose: 2.0 mg/kg/injection, schedule: Q04DX003 (ip), vehicle: saline
  T/C: 29 % of control
dose: 2.0 mg/kg/injection, schedule: Q04DX003 (sc), vehicle: saline
  T/C: 66 % of control
dose: 3.0 mg/kg/injection, schedule: Q04DX003 (sc), vehicle: saline
  T/C: 9 % of control
dose: 4.0 mg/kg/injection, schedule: Q04DX003 (ip), vehicle: saline
  T/C: 8 % of control
dose: 8.0 mg/kg/injection, schedule: Q04DX003 (sc), vehicle: saline
  T/C: -90 % of control

## CC1=C(O)C(=O)[C@@H]2O[C@@H]2C1=O
dose: 2.35 mg/kg/injection, schedule: Q04DX003 (sc), vehicle: saline
  T/C: 86 % of control
dose: 4.69 mg/kg/injection, schedule: Q04DX003 (sc), vehicle: saline
  T/C: 82 % of control
dose: 9.38 mg/kg/injection, schedule: Q04DX003 (sc), vehicle: saline
  T/C: 119 % of control
dose: 18.75 mg/kg/injection, schedule: Q04DX003 (sc), vehicle: saline
  T/C: 63 % of control

## COc1cccc2c1C(=O)c1c(O)c3c(c(O)c1C2=O)C[C@@](O)(/C(CO)=N/NC(=O)c1ccc(Cl)c(Cl)c1)C[C@@H]3OC1CC(N)C(O)C(C)O1 (stereo partly specified)
dose: 8.0 mg/kg/injection, schedule: Q01DX010 (sc), vehicle: water
  T/C: 42 % of control

## c1cc(-c2cc3ccc(C4=NCCN4)cc3[nH]2)ccc1C1=NCCN1
dose: 25.0 mg/kg/injection, schedule: Q04DX003 (sc), vehicle: saline
  T/C: 66 % of control
dose: 50.0 mg/kg/injection, schedule: Q04DX003 (sc), vehicle: saline
  T/C: 73 % of control
dose: 100.0 mg/kg/injection, schedule: Q04DX003 (sc), vehicle: saline
  T/C: 50 % of control

## CCCCCn1c(C)cc(/C=C\c2ccc3cc(C)ccc3[n+]2C)c1C
dose: 0.38 mg/kg/injection, schedule: Q04DX003 (sc), vehicle: Klucel (hydroxypropylcellulose) (HPC)
  T/C: 174 % of control
dose: 0.75 mg/kg/injection, schedule: Q04DX003 (sc), vehicle: Klucel (hydroxypropylcellulose) (HPC)
  T/C: 62 % of control
dose: 1.5 mg/kg/injection, schedule: Q04DX003 (sc), vehicle: Klucel (hydroxypropylcellulose) (HPC)
  T/C: 109 % of control
dose: 3.0 mg/kg/injection, schedule: Q04DX003 (sc), vehicle: Klucel (hydroxypropylcellulose) (HPC)
  T/C: 74 % of control

## O=c1oc2c(O)c(O)cc3c(=O)oc4c(O)c(O)cc1c4c23
dose: 150.0 mg/kg/injection, schedule: Q04DX003 (sc), vehicle: Klucel (hydroxypropylcellulose) (HPC)
  T/C: 115 % of control
dose: 300.0 mg/kg/injection, schedule: Q04DX003 (sc), vehicle: Klucel (hydroxypropylcellulose) (HPC)
  T/C: 109 % of control
dose: 600.0 mg/kg/injection, schedule: Q04DX003 (sc), vehicle: Klucel (hydroxypropylcellulose) (HPC)
  T/C: 67 % of control
dose: 1200.0 mg/kg/injection, schedule: Q04DX003 (sc), vehicle: Klucel (hydroxypropylcellulose) (HPC)
  T/C: 101 % of control

## CC(=O)C(O)N1C(=O)C=CC1=O (stereo unspecified)
dose: 2.5 mg/kg/injection, schedule: Q01DX010 (sc), vehicle: saline
  T/C: 157 % of control
dose: 5.0 mg/kg/injection, schedule: Q01DX010 (sc), vehicle: saline
  T/C: 117 % of control
dose: 10.0 mg/kg/injection, schedule: Q01DX010 (sc), vehicle: saline
  T/C: 159 % of control

## C[C@H](CCC[C@H](C)OS(=O)(=O)c1ccccc1)OS(=O)(=O)c1ccccc1
dose: 300.0 mg/kg/injection, schedule: Q04DX003 (sc), vehicle: saline with Tween-80
  T/C: 92 % of control
dose: 600.0 mg/kg/injection, schedule: Q04DX003 (sc), vehicle: saline with Tween-80
  T/C: 48 % of control

## CSC(SC)=C1C(=O)NC(=O)NC1=O
dose: 75.0 mg/kg/injection, schedule: Q04DX003 (sc), vehicle: suspension in saline
  T/C: 69 % of control
dose: 150.0 mg/kg/injection, schedule: Q04DX003 (sc), vehicle: suspension in saline
  T/C: 75 % of control
[1]
  T/C: 108 % of control
[2]
  T/C: 42 % of control

## C=C(C(=O)O)C(N)C(=O)O (stereo unspecified)
[1]
  T/C: 96 % of control
[2]
  T/C: 78 % of control
dose: 1200.0 mg/kg/injection, schedule: Q04DX003 (sc), vehicle: suspension in saline
  T/C: 88 % of control

## CCOC(=O)c1c[nH]c2oc(/C=N/N3CC(CN4CCOCC4)OC3=O)cc2c1=O (stereo unspecified)
dose: 50.0 mg/kg/injection, schedule: Q01DX010 (sc), vehicle: saline
  T/C: 116 % of control
dose: 100.0 mg/kg/injection, schedule: Q01DX010 (sc), vehicle: saline
  T/C: 77 % of control
dose: 200.0 mg/kg/injection, schedule: Q01DX010 (sc), vehicle: saline
  T/C: 98 % of control
dose: 400.0 mg/kg/injection, schedule: Q01DX010 (sc), vehicle: saline
  T/C: 72 % of control
